Assay results as given in ChEMBL document CHEMBL1201862, “PubChem BioAssay data set” (2004).
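All cell lines were grown in 96-well plates and treated with compound for 48 hours. GI50 is the concentration that inhibits growth by half.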 Activity calls are given as the source filed them. Cut-off read from the data, not from the text of the source: active = GI50 up to about 1.1 µM and inactive = higher.

Columns and labels:
Assay in all cases: NCI tumour cell line growth inhibition, 48 h
[1] = tested on: A549
[2] = tested on: COLO 205
[3] = tested on: EKVX
[4] = tested on: HCT-116
[5] = tested on: HCT-15
[6] = tested on: HL-60
[7] = tested on: HOP-62
[8] = tested on: HT-29
[9] = tested on: IGROV-1
[10] = tested on: MOLT-4
[11] = tested on: NCI-H460
[12] = tested on: OVCAR-4
[13] = tested on: OVCAR-5
[14] = tested on: OVCAR-8
[15] = tested on: RPMI-8226
[16] = tested on: SF-268
[17] = tested on: SF-539
[18] = tested on: SW-620
[19] = tested on: UACC-62
[20] = tested on: UO-31

Structure (SMILES)	GI50 [1]	GI50 [2]	GI50 [3]	GI50 [4]	GI50 [5]	GI50 [6]	GI50 [7]	GI50 [8]	GI50 [9]	GI50 [10]	GI50 [11]	GI50 [12]	GI50 [13]	GI50 [14]	GI50 [15]	GI50 [16]	GI50 [17]	GI50 [18]	GI50 [19]	GI50 [20]
Cc1cccc2c1Sc1ccccc1C2NC(=O)CN(C)C (stereo not given)	> 100 µM (inactive)	> 100 µM (inactive)	> 100 µM (inactive)	> 100 µM (inactive)	> 100 µM	74.5 µM (inactive)	> 100 µM (inactive)	69.2 µM (inactive)	> 100 µM (inactive)	59.7 µM (inactive)	> 100 µM (inactive)	> 100 µM (inactive)	> 100 µM (inactive)	> 100 µM (inactive)	77.8 µM (inactive)	> 100 µM (inactive)	> 100 µM (inactive)	> 100 µM (inactive)	> 100 µM (inactive)	33.6 µM (inactive)
Nc1nc(=S)[nH]c2nc3c(c(-c4ccccc4)c12)CCCC3	> 100 µM (inactive)	> 100 µM (inactive)	50 µM (inactive)	> 100 µM (inactive)	> 100 µM	> 100 µM (inactive)	> 100 µM (inactive)	> 100 µM (inactive)	> 100 µM (inactive)	> 100 µM (inactive)	> 100 µM (inactive)	> 100 µM (inactive)	> 100 µM (inactive)	> 100 µM (inactive)	> 100 µM (inactive)	> 100 µM (inactive)	71.6 µM (inactive)	> 100 µM (inactive)	> 100 µM (inactive)	> 100 µM (inactive)
O=Cc1c(Br)[nH]c2ccccc12	> 100 µM (inactive)	97.9 µM (inactive)	> 100 µM (inactive)	84.7 µM (inactive)	> 100 µM	9.55 µM (inactive)	> 100 µM (inactive)	> 100 µM (inactive)	> 81.1 µM (inactive)	27 µM (inactive)	> 100 µM (inactive)	56.8 µM (inactive)	> 91.4 µM (inactive)	> 100 µM (inactive)	19.3 µM (inactive)	> 100 µM (inactive)	> 100 µM (inactive)	> 100 µM (inactive)	47 µM (inactive)	39.9 µM (inactive)
COc1ccc(NC2=NCCO2)c2ccccc12	> 10 µM (inactive)	> 10 µM (inactive)	> 10 µM (inactive)	> 10 µM (inactive)	> 10 µM	> 10 µM (inactive)	> 10 µM (inactive)	> 10 µM (inactive)	> 10 µM (inactive)	> 10 µM (inactive)	> 10 µM (inactive)	> 10 µM (inactive)	> 10 µM (inactive)	> 10 µM (inactive)	> 10 µM (inactive)	> 10 µM (inactive)	> 10 µM (inactive)	> 10 µM (inactive)	> 10 µM (inactive)	> 10 µM (inactive)
O=C(NCCCNC(=O)c1ccc2cc(O)c(O)cc2c1)c1ccc2cc(O)c(O)cc2c1	69.8 µM (inactive)	30.7 µM (inactive)	27.9 µM (inactive)	37.4 µM (inactive)	19.9 µM	19.2 µM (inactive)	25.1 µM (inactive)	23.4 µM (inactive)	35.6 µM (inactive)	30 µM (inactive)	34 µM (inactive)	16.7 µM (inactive)	63 µM (inactive)	35.2 µM (inactive)	29.3 µM (inactive)	28.8 µM (inactive)	16.5 µM (inactive)	43 µM (inactive)	20 µM (inactive)	34.1 µM (inactive)
O=c1c2cc(I)ccc2nc(-c2cccs2)n1Nc1ccccc1	1.06 µM (active)	1.64 µM (inactive)	13.5 µM (inactive)	12.2 µM (inactive)	5.78 µM	0.416 µM (active)	18.8 µM (inactive)	3.21 µM (inactive)	1.39 µM (inactive)	8.17 µM (inactive)	0.458 µM (active)	3.06 µM (inactive)	30.5 µM (inactive)	2.08 µM (inactive)	4.61 µM (inactive)	14.1 µM (inactive)	33.5 µM (inactive)	2.72 µM (inactive)	0.719 µM (active)	0.889 µM (active)
